Data reported in patent US8119655B2, “Kinase inhibitors” (Takeda Pharmaceutical Company Limited, priority 2005, dated 2012).

Molecular target: T1, AIK (Homo sapiens, UniProt O14965)
T1 sequence (O14965 1-403): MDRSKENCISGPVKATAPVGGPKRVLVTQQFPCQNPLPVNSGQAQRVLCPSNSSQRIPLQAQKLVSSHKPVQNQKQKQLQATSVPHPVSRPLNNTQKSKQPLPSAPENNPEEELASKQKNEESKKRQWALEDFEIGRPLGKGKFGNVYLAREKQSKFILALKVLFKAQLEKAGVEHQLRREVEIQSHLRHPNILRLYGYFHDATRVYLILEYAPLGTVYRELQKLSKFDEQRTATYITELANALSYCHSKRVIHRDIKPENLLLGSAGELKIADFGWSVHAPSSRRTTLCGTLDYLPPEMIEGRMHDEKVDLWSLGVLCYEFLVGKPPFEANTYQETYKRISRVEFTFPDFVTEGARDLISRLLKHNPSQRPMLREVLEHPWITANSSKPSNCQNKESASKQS
Experiment: Determination of inhibition of AIK by direct fluorescence polarization (IMAP)
Assay type: biochemical
Settings: FP assay, 2.5 μM ATP, 2.5 nM AIK; read-out: IC50 of Exemplified Compounds Against AIK
Method: The inhibitory properties of compounds relative to AIK may be determined by the Direct Fluorescence Polarization detection method (FP) using a Greiner small volume black 384-well-plate format under the following reaction conditions: 50 mM Hepes pH 7.3, 10 mM MgCl2, 10 mM NaCl, 1 mM DTT, 0.01% Brij35, 100 nM Fluorescein-LRRASLG peptide (provided by SYNPEP), 5% DMSO, 2.5 μM ATP. Detection of the reaction product is performed by addition of IMAP binding reagent (Molecular Devices). Reaction product may be determined quantitatively by FP using an Analyst HT plate reader (Molecular Devices) with an excitation wavelength at 485 nm and emission at 530 nm and using a Fluorescein 505 dichroic mirror.
The assay reaction may be initiated as follows: 2 ul of (3×) 300 nM Fl-Peptide/7.5 uM ATP was added to each well of the plate, followed by the addition of 2 ul of (3×) inhibitor (2.5 fold serial dilutions for 11 data points for each inhibitor) containing 15% DMSO. 2 ul of (3×) 7.5 nM AIK solution may be added to initiate the reaction (final enzyme concentration was 2.5 nM for AIK). The reaction mixture may then be incubated at room temperature for 45 min, and quenched and developed by addition of 20 ul of 1 to 400 diluted IMAP binding reagent in 1× proprietary IMAP binding buffer. Fluorescence polarization readings of the resulting reaction mixtures may be measured after a 60-minute incubation at room temperature.
IC50 values may be calculated by non-linear curve fitting of the compound concentrations and fluorescent polarization values to the standard IC50 equation.

SMILES | IC50 [µM]
CCS(=O)(=O)c1cccc(-c2cc(C(=O)NCCOCCO)c(C)c3[nH]c4ncc(C)cc4c23)c1 [Compound 110] | < 0.02
CCS(=O)(=O)c1cccc(-c2ccc(OCC3CCN(C)CC3)c3[nH]c4ncc(Cl)cc4c23)c1 [Compound 199, 3-chloro-5-(3-(ethylsulfonyl)phenyl)-8-((1-methylpiperidin-4-yl)methoxy)-9H-pyrido[2,3-b]indole] | 0.02 to 0.05
COc1ccc(-c2cccc(NC(C)=O)c2)c2c1[nH]c1ncc(C)cc12 [Compound 161, N-(3-(8-methoxy-3-methyl-9H-pyrido[2,3-b]indol-5-yl)phenyl)acetamide] | 0.05 to 0.1
CCS(=O)(=O)c1cccc(-c2cnc(NCCN(C)C)c3[nH]c4ncc(C)cc4c23)c1 [Compound 41, N′-[5-(3-Ethanesulfonyl-phenyl)-3-methyl-9H-dipyrido[2,3-b;4′,3′-d]pyrrol-8-yl]-N,N-dimethyl-ethane-1,2-diamine] | 0.05 to 0.1
CCS(=O)(=O)c1cccc(-c2ccc(OCC3CCN(C)CC3)c(I)c2)c1 [Compound 197, 4-((3′-(ethylsulfonyl)-3-iodobiphenyl-4-yloxy)methyl)-1-methylpiperidine] | < 0.02
CNS(=O)(=O)c1cccc(-c2ccc(C)c3[nH]c4ncc(C)cc4c23)c1 [Compound 15, 3-(3,8-dimethyl-9H-pyrido[2,3-b]indol-5-yl)-N-methylbenzenesulfonamide] | < 0.02
CCS(=O)(=O)c1cccc(-c2cc(C(=O)NCCN(C)C)c(C)c3[nH]c4ncc(C)cc4c23)c1 [Compound 87, N-(2-(dimethylamino)ethyl)-5-(3-(ethylsulfonyl)phenyl)-3,8-dimethyl-9H-pyrido[2,3-b]indole-7-carboxamide] | 0.02 to 0.05
Cc1cnc2[nH]c3c(C)c(C(=O)NCCN(C)C)cc(Cl)c3c2c1 [Compound 120, 5-chloro-N-(2-(dimethylamino)ethyl)-3,8-dimethyl-9H-pyrido[2,3-b]indole-7-carboxamide] | > 0.1
CCOc1ncc(-c2cccc(S(=O)(=O)CC)c2)c2c1[nH]c1ncc(C)cc12 [Compound 50, 5-(3-Ethanesulfonyl-phenyl)-8-ethoxy-3-methyl-9H-dipyrido[2,3-b;4′,3′-d]pyrrole] | < 0.02
CCS(=O)(=O)c1cccc(-c2cnc(OCC3CCN(C)CC3)c3[nH]c4ncc(C)cc4c23)c1 [Compound 53, 5-(3-Ethanesulfonyl-phenyl)-3-methyl-8-(1-methyl-piperidin-4-ylmethoxy)-9H-dipyrido[2,3-b;4′,3′-d]pyrrole] | < 0.02
COc1ccc(Cl)cc1Nc1ncc(C)cc1Br [Compound 154, 3-bromo-N-(5-chloro-2-methoxyphenyl)-5-methylpyridin-amine] | < 0.02
CCS(=O)(=O)c1cccc(-c2ccc(OC)c3[nH]c4ncc(Cl)cc4c23)c1 [Compound 217] | < 0.02
CCS(=O)(=O)c1cccc(-c2ccc(C)c3[nH]c4ncccc4c23)c1 [Compound 17, 5-(3-(ethylsulfonyl)phenyl)-8-methyl-9H-pyrido[2,3-b]indole] | 0.02 to 0.05
CCS(=O)(=O)c1cccc(-c2cnc(C#N)c3[nH]c4ncc(C)cc4c23)c1 [Compound 48, 5-(3-Ethanesulfonyl-phenyl)-3-methyl-9H-dipyrido[2,3-b;4′,3′-d]pyrrole-8-carbonitrile] | > 0.1
Cc1cnc2[nH]c3c(OCC4CCN(C)CC4)ccc(Cl)c3c2c1 [Compound 175, 5-chloro-3-methyl-8-((1-methylpiperidin-4-yl)methoxy)-9H-pyrido[2,3-b]indole] | 0.05 to 0.1
Cc1cnc(Nc2cc(Cl)ccc2OCC2CCN(C)CC2)c(Br)c1 [Compound 174, 3-bromo-N-(5-chloro-2-((1-methylpiperidin-4-yl)methoxy)phenyl)-5-methylpyridin-2-amine] | < 0.02
CCS(=O)(=O)c1cccc(-c2cc(F)c(OCCN(C)C)c3[nH]c4ncc(C)cc4c23)c1 [Compound 203, 2-(5-(3-(ethylsulfonyl)phenyl)-7-fluoro-3-methyl-9H-pyrido[2,3-b]indol-8-yloxy)-N,N-dimethylethanamine] | < 0.02
CCS(=O)(=O)c1cccc(-c2cc(NC(=O)CCN(C)C)c(OC)c3[nH]c4ncc(C)cc4c23)c1 [Compound 240, 3-(dimethylamino)-N-(5-(3-(ethylsulfonyl)phenyl)-8-methoxy-3-methyl-9H-pyrido[2,3-b]indol-7-yl)propanamide] | 0.02 to 0.05
Cc1cnc2[nH]c3c(C)c(C(=O)NCCN(C)C)cc(-c4cccc(NC(=O)C5CC5)c4)c3c2c1 [Compound 111, 5-(3-(cyclopropanecarboxamido)phenyl)-N-(2-(dimethylamino)ethyl)-3,8-dimethyl-9H-pyrido[2,3-b]indole-7-carboxamide] | 0.02 to 0.05
